Test results reported in patent US20150141411A1, “SUBSTITUTED 3,4-DIHYDRO-2H-PYRIDO[1,2-A]PYRAZINE-1,6-DIONE DERIVATIVES USEFUL FOR THE TREATMENT OF (INTER ALIA) ALZHEIMER'S DISEASE” (Janssen Pharmaceuticals, Inc., priority 2012, published 2015).
pIC50: −log10 of the molar value. Structures can show the parent of a compound that is named as a salt.

Assays:
[1] = target: T1, γ-secretase (Homo sapiens, UniProt P49768); experiment: Screening for γ-secretase-modulating activity: Aβ42 in supernatant of SKNBE2 cells carrying hAPP 695 wild type (Alphalisa); format: cell-based; conditions: SKNBE2 human neuroblastoma cells carrying hAPP 695 wild type, overnight incubation, Aβ42 in cell supernatant
T1 construct: endogenous in cells; host or cells: SKNBE2 human neuroblastoma cells (carrying hAPP 695 wild type as substrate)
Summary of the method: (§1)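 SKNBE2 neuroblastoma cells expressing wild-type hAPP 695 plated at 10^4 cells/well in Ultraculture with test compound, incubated overnight at 37° C. Aβ42 (C-terminal/N-terminal antibody pair) and Aβtotal (N-terminal/4G8 pair) in supernatant quantified by AlphaLISA. IC50 from 4-parameter fit of percent of compound-free control.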

[2] = target: T1, γ-secretase; experiment: Screening for γ-secretase-modulating activity: Aβtotal in supernatant of SKNBE2 cells carrying hAPP 695 wild type (Alphalisa); format: cell-based; conditions: SKNBE2 human neuroblastoma cells carrying hAPP 695 wild type, overnight incubation, Aβtotal in cell supernatant
Summary of the method: as §1

SMILES	melting point [°C]	pIC50 [1]	pIC50 [2]
Cc1cn(-c2ccc3n(c2=O)CCN(C(C)c2ccc(Cl)c(Cl)c2)C3=O)cn1 (single isomer, unassigned) [9a]	206.8	5.35	< 5.00
Cc1cn(-c2ccc3n(c2=O)CCN(C(C)c2cccc(Cl)c2Cl)C3=O)cn1 (single isomer, unassigned) [10b]	206.4	5.18	< 5.00
Cc1cn(-c2ccc3n(c2=O)CCN(C(C)c2cccc(C(F)(F)F)c2)C3=O)cn1 (single isomer, unassigned) [11a]	181.1	6.18	< 5.00
Cc1cn(-c2ccc3n(c2=O)CCN(C(C)c2cccc(C(F)(F)F)c2)C3=O)cn1 (single isomer, unassigned) [11b]	181	5.11	< 5.00
Cc1cn(-c2ccc3n(c2=O)CCN(CCC2CCCCC2)C3=O)cn1 [compound 18]	192.6	5.77	< 5.00
Cc1cn(-c2ccc3n(c2=O)C[C@@H](C)N(CC2(c4ccccc4C)CC2)C3=O)cn1 [compound 20]	199.8	5.81	< 5.00
Cc1cn(-c2ccc3n(c2=O)C[C@@H](C)N(Cc2ccccc2C)C3=O)cn1 [compound 21]	163	5.71	< 5.00
Cc1cn(-c2ccc3n(c2=O)CCN(Cc2cccc(Cl)c2)C3=O)cn1 [compound 25]	176.7	5.77	< 5.00
Cc1cn(-c2ccc3n(c2=O)CCN(CCc2ccc(Cl)cc2)C3=O)cn1 [compound 26]	184.4	5.78	< 5.00
Cc1cn(-c2ccc3n(c2=O)CCN(CCOCc2ccc(Cl)cc2)C3=O)cn1 [compound 27]	168	6.23	< 5.00
Cc1cn(-c2ccc3n(c2=O)C[C@@H](C)N(CC2(c4ccc(Cl)cc4)CC2)C3=O)cn1 [compound 28]	157.4	6.55	< 5.00
Cc1cn(-c2ccc3n(c2=O)CCN(CC2(c4ccc(Cl)cc4)CC2)C3=O)cn1 [compound 29]	227.1	6.57	< 5.00
Cc1cn(-c2ccc3n(c2=O)CCN(C2CC2c2ccc(Cl)cc2)C3=O)cn1 (stereo not drawn) [compound 30]	168.5	5.69	< 5.00
Cc1cn(-c2ccc3n(c2=O)C[C@@H](C)N(Cc2cccc(Cl)c2F)C3=O)cn1 [compound 35]	182.2	5.99	< 5.00
Cc1cn(-c2ccc3n(c2=O)CCN(Cc2cccc(Cl)c2Cl)C3=O)cn1 [compound 36]	224.9	6.29	< 5.00
Cc1cn(-c2ccc3n(c2=O)CCN(Cc2ccc(Cl)c(Cl)c2)C3=O)cn1 [compound 38]	190.8	6.48	5.44
Cc1cn(-c2ccc3n(c2=O)C[C@@H](C)N(Cc2cccc(Cl)c2C)C3=O)cn1 [compound 40]	182.1	6.29	< 5.00

Further lines, results first:

melting point [°C]	pIC50 [1]	pIC50 [2]	SMILES
213.2	–	–	Cc1cn(-c2ccc3n(c2=O)C[C@@H](C)N(C(C)c2cc(CC4CC4)cc(C(F)(F)F)c2)C3=O)cn1 (single isomer, unassigned) (as salt: HCl) [compound 135]
146.2	–	–	CCC(c1cc(OC)cc(C(F)(F)F)c1)N1C(=O)c2ccc(-n3cnc(C)c3)c(=O)n2C[C@H]1C (single isomer, unassigned) (as salt: HCl) [compound 141]
141.4	–	–	CCC(c1cc(OC)cc(C(F)(F)F)c1)N1C(=O)c2ccc(-n3cnc(C)c3)c(=O)n2C[C@H]1C (single isomer, unassigned) (as salt: HCl) [compound 142]
229.3	–	–	CCOc1cc(C(C)N2C(=O)c3ccc(-n4cnc(C)c4)c(=O)n3C[C@H]2C)cc(C(F)(F)F)c1 (single isomer, unassigned) (as salt: HCl) [compound 143]
194.4	–	–	CCOc1cc(C(C)N2C(=O)c3ccc(-n4cnc(C)c4)c(=O)n3C[C@H]2C)cc(C(F)(F)F)c1 (single isomer, unassigned) (as salt: HCl) [compound 144]
232.9	–	–	Cc1cn(-c2ccc3n(c2=O)C[C@@H](C)N(C(C)c2cccc(OC(F)(F)F)c2)C3=O)cn1 (single isomer, unassigned) (as salt: HCl) [compound 147]
122	–	–	COc1cc(C(C)N2C(=O)c3ccc(-n4cnc(C)c4)c(=O)n3C[C@H]2C)cc(C(F)(F)F)c1 (single isomer, unassigned) (as salt: HCl) [compound 149]
261	6.11	< 5.00	Cc1cn(-c2ccc3n(c2=O)CCN(C(C)c2cn(C)c4cc(F)c(Cl)cc24)C3=O)cn1 (single isomer, unassigned) [compound 186]
255	8.00	5.48	Cc1cn(-c2ccc3n(c2=O)CC(C)N(C(C)c2cn(C)c4cc(F)c(Cl)cc24)C3=O)cn1 (single isomer, unassigned) [compound 190]
206	5.41	< 5.00	Cc1cn(-c2ccc3n(c2=O)CCN(C(C)c2cc(Cl)cc(Cl)c2)C3=O)cn1 (single isomer, unassigned) [compound 208]
146	7.05	< 5.00	Cc1cn(-c2ccc3n(c2=O)C[C@@H](C)N(C(C)c2cc(Cl)cc(Cl)c2)C3=O)cn1 (single isomer, unassigned) [compound 211]
194	8.30	6.10	CCn1cc(C(C)N2C(=O)c3ccc(-n4cnc(C)c4)c(=O)n3CC2C)c2cc(Cl)cc(F)c21 (single isomer, unassigned) [compound 221]
243	6.66	5.18	Cc1cn(-c2ccc3n(c2=O)CC(C)N(C(C)c2cn(C)c4c(F)cc(Cl)cc24)C3=O)cn1 (single isomer, unassigned) [compound 223]
183.4	6.13	< 5.00	Cc1cn(-c2ccc3n(c2=O)CCN(Cc2cccc(C(F)(F)F)c2)C3=O)cn1 [compound 42]
164.9	6.21	< 5.00	Cc1cn(-c2ccc3n(c2=O)C[C@@H](C)N(Cc2ccc(C(F)(F)F)cc2)C3=O)cn1 [compound 43]
219	6.68	< 5.00	Cc1cn(-c2ccc3n(c2=O)CCN(Cc2cc(C(F)(F)F)cc(C(F)(F)F)c2)C3=O)cn1 [compound 53]
227.5	5.42	< 5.00	Cc1cn(-c2ccc3n(c2=O)CCN(c2cccc(C(F)(F)F)c2F)C3=O)cn1 [compound 55]
197.6	5.77	< 5.00	Cc1cn(-c2ccc3n(c2=O)CCN(Cc2cccc(C(F)(F)F)c2F)C3=O)cn1 [compound 56]
208	7.52	–	Cc1cn(-c2ccc3n(c2=O)CCN(Cc2c[nH]c4c(Cl)cc(Cl)cc24)C3=O)cn1 [compound 260]
